# Measurements taken from patent US20110274808A1, “METHODS FOR INCREASING THE PALATABILITY OF COMPANION ANIMAL FOOD COMPOSITIONS” (Hill's Pet Nutrition, Inc., priority 2008, published 2011).
# Legend:
# [1] = Change in body composition of dogs over 90 days; format: in vivo, dog; conditions: 90 day treatment period
# From the text: Table 4 illustrates the change in body composition of dogs fed a control diet compared with dogs fed a control plus fish oil and a control plus lipoic acid.
# GSH:GSSG ratio = experiment: Change in GSH:GSSG ratio in blood lymphocytes of dogs fed dl-alpha-lipoic acid in extruded food; format: in vivo, dog
# From the text: (§1) Thirty (30) adult, random source, dogs were utilized for this study. Dogs were at least 10 months of age, not pregnant, not lactating and of reasonable body weight prior to start of test. Animals were randomized into 5 groups for dietary treatment with 3 males and 3 females per each group.
# All dogs were fed a control food (0 ppm dl-alpha-lipoic acid added) that met or exceeded all recommendations for nutrients as proposed by the American Association of Feed Control Officials (AAFCO 2000) during a 2 week prefeeding period (Table 2). Following the prefeeding period dogs were randomized into 5 treatment groups with one of the following dl-alpha lipoic acid target-inclusions (dry matter basis): 0 ppm, 150 ppm, 1500 ppm, 3000 ppm, 4500 ppm. In all diets, control and alpha lipoic acid, Vitamin E was added and was present at a level of 600-1000 International Units and Vitamin C was added at levels of 100-200 ppm.
# Blood was collected aseptically for complete blood count, and blood biochemistry analysis 2 weeks prior to start and again at 0, 28, 56, 84, 112, 140 and 168 days of the study. In addition, 15 ml of whole blood was collected for isolation of lymphocytes at day 0, 28 and 84 of the dietary intervention.
# Heparinzed whole blood was layered onto a 50 ml Accuspin conical centrifuge tube (Sigma Chemical) and an equal volume of Phosphate buffered saline (PBS) was added. Samples were centrifuged at 700 g for 30 minutes without brake. The monocyte layer was harvested, transferred to a 15 ml conical centrifuge tube, resuspended in 1-3 ml of PB, and centrifuged as before (First wash). A second wash was performed as the first wash. Finally, cells were harvested and suspended in perchloric acid (10% w/v) and frozen at −70° C. until analysis.
# Samples were transferred from −70° C. freezer into a cooler with dry ice in it. Vials were centrifuged at 12,000 rpm for 5 minutes in a refrigerated centrifuge. An aliquot of supernatant for glutathione (GSH) analysis was transferred to a conical test tube.
# Derivatization of the acid soluble extracts was by the method of Reed and coworkers (Fariss et al) as modified by Jones (Jones et al)
# Briefly, 150 μL extract or external standards were added into a 1.5 ml Eppendorf tube followed by addition of 20 μγ-Glu-Glu internal standard and 50 μL IAA added followed by mixing. The solution was adjusted to pH about 10 (purple color) by using KOH—KHCO3 working solution. Solutions were incubated 1 hr. under room temperature in the dark. Sanger's reagent was added at the same volume as of the total volume and the solution was incubated overnight (20 hrs) in the dark at room temperature.
# After incubation, the solution was centrifuged at 12000 rpm for 5 minutes with the supernatant transferred into another 1.5 ml eppendorf tube.
# Solvents and separation conditions were as described (Fariss, Jones). Levels of GSH and GSSG were quantified relative to authentic standards. Gamma-glutamyl-glutamate was used as an internal standard to assess derivatization efficiency.
# Comparison of values for clinical chemistry, hematology and body weights vs baseline were analyzed by way of paired t-test on SAS for windows with significance set at P<0.05. Means of values at each measured time point were separated by a one-way ANOVA with significance set at P<0.05. The difference in GSH:GSSG between day 84 and baseline were analyzed between groups by way of SAS for windows in a one-way ANOVA with significance set at P<0.05.
# [2] = Six-month feeding safety study in dogs (body weight, physical examination, serum biochemistry, hematology); format: in vivo
# From the text: as §1
# All dogs were fed a control food (0 ppm dl-alpha-lipoic acid added) that met or exceeded all recommendations for nutrients as proposed by the American Association of Feed Control Officials (AAFCO 2000) during a 2 week prefeeding period (Table 2). […]
# Test foods were the sole source of nutrients except for water. […] After dogs were selected and initial body weights taken, a food dose was calculated for each dog based on the expected ME of the food. Initial food dose calculations were based on the maintenance energy requirement (MER) for the dog modified by a factor to account for normal activity as calculated by the following formula: […]
# Dogs were weighed weekly and had food doses adjusted as needed in order to feed enough food to maintain their optimal body weight. Optimal body weight was determined to be 3 on a 5 point scale. […] All measures of body weight and food intake were recorded. […]
# Comparison of values for clinical chemistry, hematology and body weights vs baseline were analyzed by way of paired t-test on SAS for windows with significance set at P<0.05. […]
smiles,measurement,setting,value
"O=C(O)CCCCC1CCSS1 (racemic) [DL-Alpha Lipoic Acid, dl-alpha-lipoic acid]",Change in weight compared with control and fish oil diets,[1],greatest change in weight
same,Difference in GSH:GSSG ratio - day 0 to day 84,"GSH:GSSG ratio; dogs, 150 ppm inclusion in extruded food",70 +/− 20
same,Difference in GSH:GSSG ratio - day 0 to day 84,"GSH:GSSG ratio; dogs, 1,500 ppm inclusion in extruded food",24 +/− 7
same,Difference in GSH:GSSG ratio - day 0 to day 84,"GSH:GSSG ratio; dogs, 3,000 ppm inclusion in extruded food",10 +/− 4
same,Difference in GSH:GSSG ratio - day 0 to day 84,"GSH:GSSG ratio; dogs, 4,500 ppm inclusion in extruded food",50 +/− 36
same,Effect on reduced glutathione (GSH) to oxidized glutathione (GSSG) ratio,"GSH:GSSG ratio; dogs, chronic feeding in diet",improves
same,Safety of chronic feeding in diet,"[2]; dog, in vivo",safe and effective
same,Body weight,"[2]; dogs, 4500 ppm inclusion group, 6 months",some weight loss occurred initially
